Literature values in patent US12629325B2, “Increased solubilization of Bemotrizinol” (DSM IP ASSETS B.V., priority 2020, dated 2026).
Where two headings read alike, the source gives them in different places.

Settings: for Solubility in esters: particularly C12-15 alkyl benzoate
[1] = listed as UV-filter of the formula (I)

Structure (SMILES): CCCCC(CC)COc1ccc(-c2nc(-c3ccc(OC)cc3)nc(-c3ccc(OCC(CC)CCCC)cc3O)n2)c(O)c1 (stereo not drawn) [Bemotrizinol, 2,4-Bis-{[4-(2-ethyl-hexyloxy)-2-hydroxy]-phenyl}-6-(4-methoxyphenyl)-1,3,5-triazine]
- Solubility in alkanes: very low
- Solubility in alkanes [1]: insoluble
- Solubility in esters: moderate solubility
- Solubility in esters [1]: very soluble
- Solubility in water: very low
- Solubility in water [1]: insoluble
